Data set [1] concerns Neuro 2A cells. Description: Selective toxicity (ratio of cytotoxicity/minimum effective dose). It is filed as cell-based, mouse. The text has this:
2. No specific test method for selective toxicity of the compounds is known, therefore the selective toxicity is defined as the ratio of cytotoxicity/minimum effective dose.

Data set [2] in a line: Cytotoxic action on Neuro 2A cells. Type of data set: cell-based. The following applies: mouse, no attached cells observed in more than 2/3 of the whole cells, read-out: Cytotoxicity (B). Here is the method: (§1) Morphological changes of Neuro 2A cells are observed according to the method of Baglioni et al. [J. Biol. Chem., 266: 18620 (1991)].
Neuro 2A cells were plated at a density of 1×10^4 cells/cm^2 in a 24-hole plate, and cultured in MEM-H with 10% FBS. On the next day, lactacystin or lactacystin derivatives were added at the concentration of 0.05-100 μM, and morphological changes of the cells with time were observed by phase contrast microscopy.

Data set [3] has as its system Neuro 2A cells. Description: Activity of neuritogenesis (bipolar outgrowth of neurites) in Neuro 2A cells, minimum effective dose. Type of data set: cell-based, mouse. The following applies: for minimal effective concentration: Mus musculus, N2a, Neuro 2A cells, concentration in which approximately 20% of whole cells showed bipolar outgrowth of neurites, read-out: Minimum effective dose (A). The method, then:
as §1
Neuro 2A cells were plated at a density of 1×10^4 cells/cm^2 in a 24-hole plate, and cultured in MEM-H with 10% FBS.

Data set [4] has as its system intracelluar cAMP level in Neuro 2A. Briefly: Transient increase in the intracellular cAMP level in mouse neuroblastoma cell line Neuro 2A. It is filed as cell-based. (Changes in cAMP serve as a functional read-out for many G protein-coupled receptors.)
The conditions of data set [5]: cited from earlier work.

These results are taken from US5869675A, “Lactacystin derivatives” (The Kitasato Institute, priority 1994, dated 1999).

Turning to `CC(C)[C@H](O)[C@@]1(C(=O)Sc2ccccn2)NC(=O)[C@H](C)[C@@H]1O` [Example 22, 3-hydroxy-2-(1-hydroxy-2-methylpropyl)-4-methyl-5-oxo-2-pyrrolidine-2-pyridylthiocarboxylate], the “Selective toxicity (B/A)” value in the data set with Neuro 2A cells [1] came to 16. In data set [2], the MCC worked out at 12.5 µM. Besides, in the data set on Neuro 2A cells [3], the minimal effective concentration stood at 0.8 µM.
As for `CC(C)[C@H](O)[C@@]1(C(=O)Sc2ccncc2)NC(=O)[C@H](C)[C@@H]1O` [Example 23, 3-hydroxy-2-(1-hydroxy-2-methylpropyl)-4-methyl-5-oxo-2-pyrrolidine-4-pyridylthiocarboxylate], the “Selective toxicity (B/A)” value with Neuro 2A cells [1] turned out to be 16. Also, the MCC in data set [2] was determined as 12.5 µM. Also, the minimal effective concentration in the data set on Neuro 2A cells [3] is 0.8 µM.
The like results for `CC(C)[C@H](O)[C@@]1(C(=O)SCCC(N)C(=O)O)NC(=O)[C@H](C)[C@@H]1O` (stereo partly shown) [Example 24] were, in that order, 16, 25 µM and 1.56 µM.
For `CC(SC(=O)[C@]1([C@@H](O)C(C)C)NC(=O)[C@H](C)[C@@H]1O)C(=O)NCC(=O)O` (stereo partly shown) [Example 25, 2-S-propionylglycine-3-hydroxy-2-(1-hydroxy-2-methylpropyl)-4-methyl-5-oxo-2-pyrrolidinecarboxylate], in that order: 8, 12.5 µM and 1.56 µM.
For `CC(C)[C@H](O)[C@@]1(C(=O)SC[C@H](NC(=O)CC[C@H](N)C(=O)O)C(=O)NCC(=O)O)NC(=O)[C@H](C)[C@@H]1O` [Example 26, glutathione-3-hydroxy-2-(1-hydroxy-2-methylpropyl)-4-methyl-5-oxo-2-pyrrolidinethiocarboxylate], in that order: 31, 25 µM and 0.8 µM.
As for `CC(=O)N[C@@H](CSC(=O)[C@]1([C@@H](O)C(C)C)NC(=O)[C@H](C)[C@@H]1O)C(=O)O` [lactacystin], the “intracelluar cAMP level” value in data set [4] is “cause a transient increase in the intracelluar cAMP level”. Besides, the neuritogenesis entry in the data set with Neuro 2A cells [3] (mouse neuroblastoma cell line Neuro 2A) is recorded as “induce neuritogenesis”. Further, the cytotoxicity entry in data set [5] (known compound) is reported as “highly cytotoxic”. Also, the neuritogenesis activity entry in data set [5] (known from literature) is “having neuritogenesis activity”.
